Assay: Serum glucose levels in subjects after consuming coffee with sweetener blend or sucrose (Example 1)
Format: in vivo, human
Conditions: for serum glucose (Average): average across three subjects
Protocol: The following Example summarizes the impact of the above-listed formulas on serum glucose levels within three different subjects. Specifically, 6.0 grams of a blend of Formula-1 through Formula-5 (above) were stirred vigorously into one shot of regular caffeinated expresso coffee that was topped to 350 milliliters of warm water. The coffee was then completely consumed by each subject within 5 minutes, following a time=0 measurement of each subject's serum glucose levels. Each subject's serum glucose levels were subsequently measured at 15 minute intervals, up to 100 minutes following the time=0 measurement. The impact of traditional sucrose on each of the subject's serum glucose levels was also measured, so that the impact of the test sweetener composition on serum glucose levels could be measured relative to such impact by traditional sucrose. The following Tables summarize the serum glucose level measurements observed with each subject (Table-1, Table-2, and Table-3), along with the average across each of the three subjects (Table-4)(the data represent mmol/L serum glucose).

For `OC[C@H]1O[C@@](CO)(O[C@H]2O[C@H](CO)[C@@H](O)[C@H](O)[C@H]2O)[C@@H](O)[C@@H]1O` [Sucrose, sucrose], the serum glucose (Subject 1, T = 0 (before consumption)) was 5.20 mmol/L, the serum glucose (Subject 1, T = 15 minutes) was 6.20 mmol/L and the serum glucose (Subject 1, T = 30 minutes) was 7.60 mmol/L. It also gave a serum glucose (Subject 1, T = 45 minutes) of 7.60 mmol/L, a serum glucose (Subject 1, T = 60 minutes) of 7.00 mmol/L and a serum glucose (Subject 1, T = 75 minutes) of 6.20 mmol/L. It also gave a serum glucose (Subject 1, T = 100 minutes) of 6.00 mmol/L, a serum glucose (Subject 2, T = 0 (before consumption)) of 5.10 mmol/L and a serum glucose (Subject 2, T = 15 minutes) of 6.00 mmol/L. It also gave a serum glucose (Subject 2, T = 30 minutes) of 7.50 mmol/L, a serum glucose (Subject 2, T = 45 minutes) of 7.40 mmol/L and a serum glucose (Subject 2, T = 60 minutes) of 7.00 mmol/L. It also gave a serum glucose (Subject 2, T = 75 minutes) of 6.00 mmol/L, a serum glucose (Subject 2, T = 100 minutes) of 5.60 mmol/L and a serum glucose (Subject 3, T = 0 (before consumption)) of 5.20 mmol/L. It also gave a serum glucose (Subject 3, T = 15 minutes) of 5.60 mmol/L, a serum glucose (Subject 3, T = 30 minutes) of 7.70 mmol/L and a serum glucose (Subject 3, T = 45 minutes) of 7.80 mmol/L. It also gave a serum glucose (Subject 3, T = 60 minutes) of 7.40 mmol/L, a serum glucose (Subject 3, T = 75 minutes) of 6.40 mmol/L and a serum glucose (Subject 3, T = 100 minutes) of 6.20 mmol/L. The “serum glucose (Average)” value (T = 0 (before consumption)) was 5.17 mmol/L, the “serum glucose (Average)” value (T = 15 minutes) was 5.93 mmol/L and the “serum glucose (Average)” value (T = 30 minutes) was 7.60 mmol/L. The “serum glucose (Average)” value (T = 45 minutes) was 7.60 mmol/L, the “serum glucose (Average)” value (T = 60 minutes) was 7.13 mmol/L and the “serum glucose (Average)” value (T = 75 minutes) was 6.20 mmol/L. For the same compound, the “serum glucose (Average)” value (T = 100 minutes) was 5.93 mmol/L.
